Laboratory results taken from patent publication US20130217721A1, “COMPOSITIONS AND METHODS FOR DETECTION AND TREATMENT OF B-RAF INHIBITOR-RESISTANT MELANOMAS” (The Regents of the University of California, priority 2010, published 2013).
Read-outs that look alike come from different tables or passages of the source.

Tests used:
SKMEL-239 = experiment: Cell cycle and apoptosis analysis; assay type: cell-based, human; conditions: SKMEL-239 parental, 2 μM PLX4032
Experimental: Cell proliferation and cell cycle analysis. All melanoma cell lines were generated by A. Houghton (MSKCC) or obtained from ATCC. 293H cells were obtained from Invitrogen. Cells were maintained in DMEM (293H and MEFs), or RPMI (all other cell lines) supplemented with 2 mM glutamine, antibiotics and 10% fetal bovine serum. We confirmed by DNA fingerprinting^20 that all PLX4032-resistant, SKMEL-239 clones were derived from the same patient, thus excluding the possibility of contamination (Table 6). For proliferation assays, cells were plated in 6 well plates and 24 hours later were treated with varying concentrations of inhibitors as indicated. IC50 values were calculated using Graph Pad Prism v.5. For cell cycle and apoptosis studies, cells were seeded in 6 well dishes the day prior to drug treatment. For analysis, both adherent and floating cells were harvested and stained with ethidium bromide as described previously^21.

[1] = system: M249 R sub-line (M249 R4); experiment: Cell survival / proliferation assay (72 h); assay type: cell-based, human; conditions: M249 R sub-lines
Experimental: (§1) Cells were maintained in Dulbecco's modified Eagle medium (DMEM) with 10 or 20% fetal bovine serum and glutamine. shRNAs were sub-cloned into the lentiviral vector pLL3.7 and infections carried out with protamine sulphate. Stocks of PLX4032 (Plexxikon) and AZD6244 (commercially available) were made in DMSO. Cells were quantified using CellTiter-GLO Luminescence (Promega).
(§2) Cell proliferation experiments were performed in a 96-well format (five replicates), and baseline quantification performed at 24 h after cell seeding along with initiation of drug treatments (72 h). Stocks and dilutions of PLX4032 (Plexxikon), AZD6244 (Selleck Chemicals) and U0126 (Promega) were made in DMSO. siRNA pool (Dharmacon) transfections were carried out in 384-well format. TransIT transfection reagent (Mirus) was added to each well and incubated at 37° C. for 20 min. Subsequently, cells were reverse transfected, and the mixture was incubated for 51-61 h at 37° C. Cells were quantified using CellTiter 96 Aqueous One Solution (Promega) or CellTiter-GLO Luminescence (Promega) following the manufacturer's recommendations.
Cell culture, infections and drug treatments. Cells were maintained in DMEM with 10 or 20% fetal bovine serum and glutamine. shRNAs for B-RAF and C-RAF were sub-cloned into the lentiviral vector pLL3.7; pBabe B-RAF (V600E) was purchase (plasmid 17544, Addgene); viral supernatants generated by co-transfection with three packaging plasm ids into HEK293T cells; and infections carried out with protamine sulfate. Stocks and dilutions of PLX4032 (Plexxikon, Berkeley, Calif.) and AZD6244 (commercially available) were made in DMSO. Cells were quantified using CellTiter-GLO Luminescence (Promega) or crystal violet staining followed by NIH Image J quantification.

[2] = system: MAPK signalling (p-MEK1/2 and p-ERK1/2); conditions: PLX4032 0, 0.01, 0.1, 1 and 10 μM
Experimental: FIG. 1A, Parental and PLX4032-resistant sub-lines were treated with increasing PLX4032 concentration (0, 0.01, 0.1, 1 and 10 μM), and the effects on MAPK signalling were determined by immunoblotting for p-MEK1/2 and p-ERK1/2 levels. Total MEK1/2, ERK1/2 and tubulin levels, loading controls.
Western blots were probed with antibodies against p-MEK1/2 (S217/221), MEK1/2, p-ERK1/2 (T202N204), ERK1/2, PDGFRβ, and EGFR (Cell Signaling Technologies), and N-RAS (Santa Cruz Biotechnology), pan-RAS (Thermo Scientific) and tubulin (Sigma). p-RTK arrays were performed according to the manufacturer's recommendations (Human Phospho-RTK Array Kit, R&D Systems).
Cell lysates for western blotting were made in RIPA (Sigma) with protease inhibitor cocktail (Roche) and phosphatase inhibitor cocktails I and II (Santa Cruz Biotechnology). Western blots were probed with antibodies against p-MEK1/2 (S217/221), total MEK1/2, p-ERK1/2 (T202/Y204), total ERK1/2, PDGFRβ, and EGFR (all from Cell Signaling Technologies), B-RAF and N-RAS (Santa Cruz Biotechnology), pan-RAS (Thermo Scientific) and tubulin (Sigma). p-RTK arrays were performed according to the manufacturer's recommendations (Human Phospho-RTK Array Kit, R&D Systems).

[3] = system: V600EB-RAF-positive melanomas; conditions: patients with V600EB-RAF-positive melanomas; cited from earlier work
p61 BRAF(V600E/R509H) = p61 BRAF(V600E/R509H) (Homo sapiens, UniProt P15056, DEL169-380/R509H/V600E); experiment: ERK signaling in 293H cells expressing p61 BRAF(V600E/R509H); assay type: cell-based; conditions: 2 μM PLX4032 for 1 hour
Sequence of p61 BRAF(V600E/R509H) (P15056 with tags, fused parts or gaps DEL169-380/R509H/V600E): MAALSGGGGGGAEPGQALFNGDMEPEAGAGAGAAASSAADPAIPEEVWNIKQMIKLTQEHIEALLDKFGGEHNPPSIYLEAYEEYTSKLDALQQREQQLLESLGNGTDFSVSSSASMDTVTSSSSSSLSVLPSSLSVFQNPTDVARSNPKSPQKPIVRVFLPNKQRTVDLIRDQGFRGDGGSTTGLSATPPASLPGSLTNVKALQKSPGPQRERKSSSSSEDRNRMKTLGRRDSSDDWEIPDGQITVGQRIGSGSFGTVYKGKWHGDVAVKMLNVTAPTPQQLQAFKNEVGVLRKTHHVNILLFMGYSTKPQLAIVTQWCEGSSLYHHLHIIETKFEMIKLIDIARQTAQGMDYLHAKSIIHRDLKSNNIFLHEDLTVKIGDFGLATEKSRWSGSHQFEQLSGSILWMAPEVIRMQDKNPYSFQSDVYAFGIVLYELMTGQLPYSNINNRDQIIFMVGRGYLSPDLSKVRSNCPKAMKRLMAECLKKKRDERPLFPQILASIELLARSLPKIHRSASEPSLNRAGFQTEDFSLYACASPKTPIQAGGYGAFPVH
Description: (§3) FIGS. 6A-6E. […] FIG. 6A. PCR analysis of BRAF in cDNA from parental (P) and C3 cells. Primers were designed at the N-terminus and C-terminus of BRAF. […] Abbreviations: CR1: Conserved Region 1, CR2: Conserved Region 2, CR3: Conserved Region 3, RBD: RAS-binding domain, CRD: Cystine-Rich Domain, AS: Activation Segment, KD: Kinase Domain. FIG. 6B. Full length wild-type BRAF and the 1.7 kb/61 kd splice variant of BRAF(V600E) were cloned into a pcDNA3.1 vector with a FLAG tag at the C-terminus and expressed in 293H cells. The effect of PLX4032 (2 μM for 1 hour) on ERK signaling in the presence of p61 BRAF(V600E) was analyzed by western blot for pMEK and pERK. FIG. 6C. To compare levels of dimerization, 293H cells co-expressing FLAG tagged and V5-tagged p61 BRAF(V600E), full length BRAF(V600E) and the corresponding dimerization-deficient mutants p61 BRAF(V600E/R509H) and BRAF(V600E/R509H) were lysed followed by immunoprecipitation with FLAG antibody. Western blots with V5 or FLAG antibodies were performed as indicated. FIG. 6D. Comparison of MEK/ERK activation and sensitivity of ERK signaling to PLX4032 (2 μM for 1 hour) in 293H cells expressing either Flag-tagged BRAF(V600E) or the dimerization mutant Flag-tagged BRAF(V600E/R509H). FIG. 6E. […]

BRAF(V600E/R509H) = BRAF(V600E/R509H) (Homo sapiens, UniProt P15056, R509H/V600E); experiment: ERK signaling in 293H cells expressing BRAF(V600E/R509H); assay type: cell-based; conditions: 2 μM PLX4032 for 1 hour
Sequence of BRAF(V600E/R509H) (P15056 whole entry R509H/V600E): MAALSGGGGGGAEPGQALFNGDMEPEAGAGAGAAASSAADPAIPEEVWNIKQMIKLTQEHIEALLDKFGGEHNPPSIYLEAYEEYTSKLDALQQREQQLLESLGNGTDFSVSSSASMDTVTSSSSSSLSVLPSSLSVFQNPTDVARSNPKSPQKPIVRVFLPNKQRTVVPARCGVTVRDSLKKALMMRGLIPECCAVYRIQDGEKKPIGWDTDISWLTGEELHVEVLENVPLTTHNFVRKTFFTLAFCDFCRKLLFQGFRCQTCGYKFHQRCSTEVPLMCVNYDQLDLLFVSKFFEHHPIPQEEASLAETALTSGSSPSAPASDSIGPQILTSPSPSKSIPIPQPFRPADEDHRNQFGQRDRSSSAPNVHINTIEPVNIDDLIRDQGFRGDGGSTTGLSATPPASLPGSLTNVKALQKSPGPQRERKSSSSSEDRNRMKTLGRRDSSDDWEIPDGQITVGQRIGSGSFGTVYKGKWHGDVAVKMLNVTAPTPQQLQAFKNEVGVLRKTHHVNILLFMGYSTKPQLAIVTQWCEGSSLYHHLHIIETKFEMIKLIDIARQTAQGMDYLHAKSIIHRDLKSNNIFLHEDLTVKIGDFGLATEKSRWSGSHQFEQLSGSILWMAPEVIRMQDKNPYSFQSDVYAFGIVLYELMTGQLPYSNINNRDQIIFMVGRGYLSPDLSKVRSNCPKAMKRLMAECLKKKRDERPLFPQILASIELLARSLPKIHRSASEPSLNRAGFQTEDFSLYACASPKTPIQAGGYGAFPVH
Description: as §3

[4] = system: M229 R sub-lines (M229 R5); experiment: Cell survival / proliferation assay (72 h); assay type: cell-based, human; conditions: M229 R sub-lines
Experimental: as §1, §2

[5] = system: M238 R sub-lines (M238 R1); experiment: Cell survival / proliferation assay (72 h); assay type: cell-based, human; conditions: M238 R sub-lines
Experimental: as §1, §2

[6] = Homo sapiens, not reached up to 10 μM, read-out: GI50, concentration of drug that inhibits growth of cells by 50%

SMILES: CCCS(=O)(=O)Nc1ccc(F)c(C(=O)c2c[nH]c3ncc(-c4ccc(Cl)cc4)cc23)c1F [PLX4032]
- cell cycle effect (SKMEL-239): accumulation of cells in G1
- cell death (SKMEL-239): significant induction of cell death
- GI50 [1, 6]: > 10 µM
- growth at low PLX4032 concentrations ([1]; in contrast to parental cells): paradoxically enhanced growth
- PLX4032-induced decreases in p-MEK1/2 and p-ERK1/2 ([2]; M229 R5): similarly sensitive
- PLX4032-induced decreases in p-MEK1/2 and p-ERK1/2 ([2]; M238 R1): similarly sensitive
- PLX4032-induced MEK/ERK inhibition ([2]; M249 R4): strong resistance
- p-MEK1/2 and p-ERK1/2 levels ([2]; all parental cells (M229, M238, M249)): dose-dependent decreases
- anti-tumor response rate [3]: 80%
- ERK signaling (p61 BRAF(V600E/R509H)): inhibited
- sensitivity of ERK signaling (BRAF(V600E/R509H)): remained sensitive
- GI50 [4, 6]: > 10 µM
- growth at low PLX4032 concentrations ([4]; in contrast to parental cells): paradoxically enhanced growth
- GI50 [5, 6]: > 10 µM
- growth at low PLX4032 concentrations ([5]; in contrast to parental cells): paradoxically enhanced growth
